*1 amine or outer side, *2 acyl side, *3 side chain or, on linkers, in order; H or OH if unused. Where a SMILES comes first, the peptide text is derived from it. Bridges are numbered along the chain shown (N, C = ends). [ ]: non-standard residue; d: D form. Glutaryl = O=C(CCCC(=O)[*:2])[*:1]; NMeNva = CCC[C@H](NC)C(=O)O
Tests used:
SKBR-3 cells = format: cell-based, human
Method: Proliferation was measured by standard BrdU cell proliferation assay (Calbiochem). Cell lines were plated in 96-well plates (20,000 cells/well) in D-10 media with indicated amount of peptide with 2% DMSO, and incubated overnight. The BrdU compound was given to the cells for 2 hrs. Following the manufacturer's protocol, samples were analyzed by UV absorbance measurements at 450 nm. Peptide signal was normalized to cells incubated with 2% DMSO but no peptide. IC50 data was generated by fitting the data to a drug response equation (Log(drug) vs. Response, GraphPad Prism 5.0).
The peptides were then screened for function using a standard in vitro assays used to test efficacy of Her-2 targeting molecules. The assay involved analyzing a molecule's ability to inhibit proliferation in cell culture. A widely used kit is the BrdU cell proliferation assay. In this assay, cells are incubated with the molecule of interest before having their media supplemented with a bromodeoxyuridine. Bromodeoxyuridine is incorporated into the DNA of proliferating cells. DNA with this modified base is recognized with an antibody, and quantitated by ELISA. Applicants tested the peptides and compared them with their parental molecules.

[1] = mouse, in vivo, iv, 10 mg/kg
Method: 200 μL of peptide was administered by IV injection into the tail vein of C57BL6 mice at a dose of 10 mg/kg. 50 μL blood samples were taken at various time points by orbital bleeding using heparin coated capillary tubes and isoflurane for anesthesia. Samples are diluted to 600 μLin TE buffer (pH=8.0) then filtered by centrifugation through a 3000 MWCO filter. The flowthrough was analyzed on a Shimadzu RF-5301 PC fluorometer. Time points were integrated and analyzed using Prism 5.0 software.
To that end mice were administered peptide conjugated to fluorescein by IV injection into the tail vein. Blood samples were taken by orbital bleeding. Blood peptide concentration was determined by comparing fluorescence to a 15 minute time point.

[2] = as known in the field; cited from earlier work
blood sugar = assay: Blood glucose response to insulin; format: in vivo, C57BL6 mice; conditions: oral gavage, 7 nmol/kg
Method: Experimental procedure followed previously published protocols with slight modification, see e.g., (McKern, N. M., et al. (2006) Nature 443:218; Schïffer, L., et al (2003) PNAS 100:4435). Briefly, C57BL6 mice (4 in each group) fasted overnight and were anesthetized using isoflurane prior to taking blood samples by orbital bleeding. Mice were dosed with insulin or biotinylated insulin at a concentration of 3.5 nmol/kg by IV injection into the tail vein. […] In all cases, insulin was in 150 μL of 50 mM sodium phosphate buffer (pH=8.0). Blood was analyzed on a standard Clarity Plus blood glucose meter (VWR). Readings were normalized to a T=0 blood sugar measurement, and analyzed on Graphpad 5.0.
Reacting human insulin with biotin-NHS produced three distinct products that can be separated by HPLC. […] Calceti, P. et al. (2004) European Journal of Pharmaceutical Sciences 22:315; and Tuesca, A., et al. (2009) Pharmaceutical Research 26:727.
Biotinylated insulin and insulin were fed to mice by oral gavage. […] The longer duration of response is likely due to the kinetics of absorption by the intestinal mucosa.

With `CCC[C@H]1C(=O)N(C)[C@@H](CCC)C(=O)N[C@@H](CC(C)C)C(=O)N[C@@H](Cc2ccc(O)cc2)C(=O)N[C@@H](CC(=O)O)C(=O)N[C@@H](CC(=O)O)C(=O)N[C@H](C(N)=O)CCCCNC(=O)CCCC(=O)N[C@@H](CCSC)C(=O)N[C@@H](C(C)C)C(=O)N[C@@H](CS)C(=O)N1C` [Peptide D] (MVC[NMeNva][NMeNva]LYDDK-NH2; linker N-10 via Glutaryl (inferred); C-terminus assumed) the “fold improvement with respect to parental molecule” value (SKBR-3 cells; EC50/IC50 ratio, peptide 1 vs HRAP, peptide D vs ANHP) was roughly 110 fold and the “proliferation relative to untreated cells (maximal effect)” value (SKBR-3 cells; concentrations significantly above the EC50) was 56%.

`CC[C@H](C)[C@@H]1NC(=O)[C@H](CCSC)NC(=O)CCCC(=O)NCCCC[C@@H](C(N)=O)NC(=O)[C@H]([C@@H](C)O)NC(=O)CNC(=O)[C@H](C)NC(=O)[C@H](C(C)C)NC(=O)[C@H](Cc2ccccc2)NC(=O)[C@H](CCC(=O)O)NC(=O)[C@H](Cc2ccc(O)cc2)NC(=O)[C@H](Cc2c[nH]c3ccccc23)NC(=O)[C@H]([C@@H](C)O)NC1=O` [cycGIBP, reference compound] (MITWYEFVAGTK-NH2; linker N-12 via Glutaryl) gave a half-life [1] of 3.1 min.

For `CCCCCC/C=C\CCCCCCCC(=O)O` [palmitoleic acid], the oral bioavailability [2] is given as roughly 100%.

With “biotinylated insulin: human insulin singly biotinylated on the N-terminus of the B-chain” the “effect on blood sugar” value (blood sugar) was “produced a typical insulin response”.

For “insulin: unmodified human insulin [reference compound]”, the “effect on blood sugar” value (blood sugar) was “no effect on blood sugar”.
